Biological target: T1, MAP2K6 (MKK6) (Homo sapiens, UniProt P52564)
T1 construct: purchased Thermo Fisher Scientific (Life Technologies) SelectScreen
Experiment: SelectScreen Z'LYTE
Type: biochemical
Conditions: ATP 100 µM
How it was run: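 NU5455 was profiled across the SelectScreen Broad panel of kinase activity and binding assays. Z'LYTE reactions such as CSF1R ran at apparent Km ATP, while the Adapta CAMK1 assay used ATP listed as 10. Values are given as percent.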

T1 sequence (P52564 whole entry): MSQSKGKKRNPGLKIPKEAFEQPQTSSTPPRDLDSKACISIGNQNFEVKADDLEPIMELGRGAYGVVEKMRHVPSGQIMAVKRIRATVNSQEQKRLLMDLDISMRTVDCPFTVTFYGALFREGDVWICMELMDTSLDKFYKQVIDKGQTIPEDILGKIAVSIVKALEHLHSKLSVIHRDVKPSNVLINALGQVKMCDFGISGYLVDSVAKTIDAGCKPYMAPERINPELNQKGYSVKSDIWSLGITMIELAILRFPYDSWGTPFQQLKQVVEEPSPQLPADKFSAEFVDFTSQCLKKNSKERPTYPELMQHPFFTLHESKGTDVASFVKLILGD

`CN(C(=O)CN1CCOCC1)c1ccc2sc3c(-c4cccc5c(=O)cc(N6CC7CCC(C6)O7)oc45)cccc3c2c1` [NU5455] gave an inhibition at 1 µM of 1.8%.
